In brackets after ≈: the same amount, converted by molar mass. Like-named read-outs stand apart in the source and are kept apart here.
Experiments:
[1] = test system: Neisseria gonorrhoeae, GC525 (NG-2888); assay: in-vitro antibacterial activity, microbroth dilution MIC susceptibility testing; type: cell-based; set-up: unit: ug/mL; conditions: microbroth dilution in gonococcal broth, 20-24 hours at 35 C, lowest concentration preventing visible growth
Summary of the method: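 Broth microdilution in gonococcal broth, inoculum ~5×10^5 cfu/mL, 20-24 h at 35 C in humidified CO2; compounds from 2 mg/mL DMSO stocks over 64-0.06 and 1-0.001 ug/mL two-fold series. MIC is the lowest concentration preventing visible growth, read visually; duplicates differing one well give the lower value, two wells the middle value.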

[2] = Neisseria gonorrhoeae, read-out: MIC

Compound	MIC [1, 2] [µg/mL]	melting point	MIC [1] [µg/mL]
CCNC(=O)Nc1nc2cc(-c3cccnc3)ccn2n1 [Example 1, 1-Ethyl-3-(7-pyridin-3-yl-[1,2,4]triazolo[1,5-a]pyridin-2-yl)-urea]	32 (≈ 113 µM)	230 to 233 °C	–
CCNC(=O)Nc1nc2cc(-c3ccc(OC)nc3)ccn2n1 [Example 2, 1-Ethyl-3-[7-(6-methoxy-pyridin-3-yl)-[1,2,4]triazolo[1,5-a]pyridin-2-yl]-urea]	> 64	230 to 233 °C	–
CCNC(=O)Nc1nc2cc(-c3cnc(OC)nc3)ccn2n1 [Example 3, 1-Ethyl-3-[7-(2-methoxy-pyrimidin-5-yl)-[1,2,4]triazolo[1,5-a]pyridin-2-yl]-urea]	> 64	243 to 248 °C	–
CCNC(=O)Nc1nc2cc(-c3cccnc3)cc(C(=O)OC)n2n1 [Example 6, 2-(3-Ethyl-ureido)-7-pyridin-3-yl-[1,2,4]triazolo[1,5-a]pyridine-5-carboxylic acid methyl ester]	16 (≈ 47 µM)	211 to 213 °C	–
CCNC(=O)Nc1nc2cc(-c3cccnc3)cc(C(=O)NC)n2n1 [Example 7, 2-(3-Ethyl-ureido)-7-pyridin-3-yl-[1,2,4]triazolo[1,5-a]pyridine-5-carboxylic acid methylamide]	2 (≈ 5.89 µM)	> 300 °C	–
CCNC(=O)Nc1nc2cc(-c3cccnc3)cc(C(=O)OCC)n2n1 [Example 16, 2-(3-ethyl-ureido)-7-pyridin-3-yl-[1,2,4]triazolo[1,5-a]pyridine-5-carboxylic acid ethyl ester]	–	242 to 245 °C	–
CCNC(=O)Nc1nc2cc(-c3cccnc3)cc(-c3nc(C)no3)n2n1 [Example 18, 1-Ethyl-3-[5-(3-methyl-[1,2,4]oxadiazol-5-yl)-7-pyridin-3-yl-[1,2,4]triazolo[1,5-a]pyridin-2-yl]-urea]	–	298 to 301 °C	–
CCNC(=O)Nc1nc2cc(-c3cncnc3)cc(C(=O)NCC)n2n1 [Example 19, N-Ethyl-2-{[(ethylamino)carbonyl]amino}-7-pyrimidin-5-yl[1,2,4]triazolo[1,5-a]pyridine-5-carboxamide]	1 (≈ 2.82 µM)	317 to 321 °C	–
CCNC(=O)Nc1nc2cc(-c3cnc(N(C)C)nc3)cc(C(=O)NCC)n2n1 [Example 20, 7-[2-(Dimethylamino)pyrimidin-5-yl]-N-ethyl-2-{[(ethylamino)carbonyl]amino}[1,2,4]triazolo[1,5-a]pyridine-5-carboxamide]	1 (≈ 2.52 µM)	328 to 334 °C	–
CCNC(=O)Nc1nc2cc(-c3c(C)noc3C)cc(C(=O)NCC)n2n1 [Example 21, 7-(3,5-Dimethylisoxazol-4-yl)-N-ethyl-2-{[(ethylamino)carbonyl]amino}[1,2,4]triazolo[1,5-a]pyridine-5-carboxamide]	> 64	238 to 241 °C	–
CCNC(=O)Nc1nc2cc(-c3cccnc3)cc(-c3nnc(C)o3)n2n1 [Example 23, N-Ethyl-N′-[5-(5-methyl-1,3,4-oxadiazol-2-yl)-7-pyridin-3-yl[1,2,4]triazolo[1,5-a]pyridin-2-yl]urea]	> 64	318 to 321 °C	–
CCNC(=O)Nc1nc2cc(-c3cccnc3)cc(N3CCC(N(C)C)C3)n2n1 (stereo not shown) [Example 130, 1-[5-(3-Dimethylamino-pyrrolidin-1-yl)-7-pyridin-3-yl-[1,2,4]triazolo[1,5-a]pyridin-2-yl]-3-ethyl-urea]	16 (≈ 40.6 µM)	248 to 250 °C	–
CCNC(=O)Nc1nc2cc(-c3cccnc3)cc(N3CCOCC3)n2n1 [Example 133, 1-Ethyl-3-(5-morpholin-4-yl-7-pyridin-3-yl-[1,2,4]triazolo[1,5-a]pyridin-2-yl)-urea]	0.25 (≈ 0.68 µM)	298 to 300 °C	–
CCNC(=O)Nc1nc2cc(-c3cccnc3)cc(N3CCC(O)C3)n2n1 (stereo not shown) [Example 134, 1-Ethyl-3-[5-(3-hydroxy-pyrrolidin-1-yl)-7-pyridin-3-yl-[1,2,4]triazolo[1,5-a]pyridin-2-yl]-urea]	32 (≈ 87.1 µM)	296 to 298 °C	–
CCNC(=O)Nc1nc2cc(-c3cccnc3)cc(OCCN(C)C)n2n1 [Example 141, 1-[5-(2-Dimethylamino-ethoxy)-7-pyridin-3-yl-[1,2,4]triazolo[1,5-a]pyridin-2-yl]-3-ethyl-urea]	32 (≈ 86.6 µM)	200 to 202 °C	–
CCNC(=O)Nc1nc2cc(-c3cccnc3)cc(-c3ccc(OC)nc3)n2n1 [Example 142, N-Ethyl-N′-[5-(6-methoxypyridin-3-yl)-7-pyridin-3-yl[1,2,4]triazolo[1,5-a]pyridin-2-yl]urea]	16 (≈ 41.1 µM)	–	–
CCNC(=O)Nc1nc2cc(-c3cccnc3)cc(OCCN3CCCC3)n2n1 [Example 143, N-Ethyl-N′-[7-pyridin-3-yl-5-(2-pyrrolidin-1-ylethoxy)[1,2,4]triazolo[1,5-a]pyridin-2-yl]urea]	32 (≈ 80.9 µM)	189 to 192 °C (dec.)	–
CCNC(=O)Nc1nc2cc(-c3cccnc3)cc(OCCN3CCCCC3)n2n1 [Example 144, 1-Ethyl-3-[5-(2-piperidin-1-yl-ethoxy)-7-pyridin-3-yl-[1,2,4]triazolo[1,5-a]pyridin-2-yl]-urea]	32 (≈ 78.1 µM)	–	–
CCNC(=O)Nc1nc2cc(-c3cccnc3)cc(N3CCNCC3)n2n1 [Example 146, 1-Ethyl-3-(5-piperazin-1-yl-7-pyridin-3-yl-[1,2,4]triazolo[1,5-a]pyridin-2-yl)-urea]	32 (≈ 87.3 µM)	–	–
CCNC(=O)c1cc(-c2cccnc2)cc2nc(NS(C)(=O)=O)nn12 [Example 147, 2-N-Methylsulfonylamino-7-pyridin-3-yl-[1,2,4]triazolo[1,5-a]pyridin-5-carboxylic acid ethyl amide]	–	–	4.00 (≈ 11.1 µM)
CCNC(=O)Nc1nc2cc(-c3cccnc3)cc(-c3oc(C)nc3C)n2n1 [Example 148, N-[5-(2,4-Dimethyl-1,3-oxazol-5-yl)-7-pyridin-3-yl[1,2,4]triazolo[1,5-a]pyridin-2-yl]-N′-ethylurea]	4 (≈ 10.6 µM)	–	–
CCNC(=O)Nc1nc2cc(-c3ccc(OC)nc3)cc(-c3cnc(C)o3)n2n1 [Example 149, 1-Ethyl-3-[7-(6-methoxy-pyridin-3-yl)-5-(2-methyl-oxazol-5-yl)-[1,2,4]triazolo[1,5-a]pyridin-2-yl]-urea]	16 (≈ 40.7 µM)	–	–
CCNC(=O)Nc1nc2cc(-c3cccnc3)cc(N(C)C3CCN(C)C3)n2n1 (stereo not shown) [Example 150, 1-Ethyl-3-(5-[methyl-(1-methyl-pyrrolidin-3-yl)-amino]-7-pyridin-3-yl-[1,2,4]triazolo[1,5-a]pyridin-2-yl)-urea]	32 (≈ 81.1 µM)	–	–
CCNC(=O)c1cc(-c2cccnc2)cc2nc(NS(=O)(=O)CC)nn12 [Example 151, 2-N-ethylsulfonylamino-7-pyridin-3-yl-[1,2,4]triazolo[1,5-a]pyridin-5-carboxylic acid ethyl amide]	–	–	32.0 (≈ 85.5 µM)
CCNC(=O)Nc1nc2cc(-c3cccnc3)cc(NC3CCN(C)CC3)n2n1 [Example 152, 1-Ethyl-3-[5-(1-methyl-piperidin-4-ylamino)-7-pyridin-3-yl[1,2,4]triazolo[1,5-a]pyridin-2-yl]-urea]	8 (≈ 20.3 µM)	–	–
N-Methyl-N′-[5-(3-methylpyridin-2-yl)-7-pyridin-3-yl[1,2,4]triazolo[1,5-a]pyridin-2-yl]urea [Example 145]	–	–	16.0

From patent US7524860B2, “Antibacterial agents” (Pfizer Inc., priority 2004, dated 2009)
